What was measured:
[1] = biological target: Mu-type opioid receptor (Homo sapiens, UniProt P35372); experiment: Displacement of [3H]diprenorphine from human MOP receptor expressed in CHO cell membrane; type: cell membranes
[2] = biological target: Kappa-type opioid receptor (Homo sapiens, UniProt P41145); experiment: Displacement of [3H]diprenorphine from human KOP receptor expressed in CHO cell membrane; type: cell membranes
[3] = biological target: T1, Nociceptin receptor (Homo sapiens, UniProt P41146); experiment: Displacement of [125I][Tyr14]nociceptin FQ from human NOP receptor expressed in CHO cell membrane; type: cell membranes
[4] = biological target: Delta-type opioid receptor (Homo sapiens, UniProt P41143); experiment: Displacement of [3H]diprenorphine from human DOP receptor expressed in CHO cell membrane; type: cell membranes
[5] = biological target: T1, Nociceptin receptor; experiment: Agonist activity at human NOP receptor transfected in CHO cells assessed as stimulation of [35S]GTP-gamma-S at 100 uM; type: functional, cell-based
[6] = biological target: T1, Nociceptin receptor; experiment: Agonist activity at human NOP receptor transfected in CHO cells assessed as stimulation of [35S]GTPgammaS at 1 uM; type: functional, cell-based
[7] = biological target: T1, Nociceptin receptor; experiment: Activity at human NOP receptor transfected in CHO cells assessed as inhibition of [35S]GTPgammaS at 10 uM; type: functional, cell-based
[8] = biological target: T1, Nociceptin receptor; experiment: Activity at human NOP receptor transfected in CHO cells assessed as inhibition of [35S]GTP-gamma-S at 1 uM; type: functional, cell-based
[9] = biological target: T1, Nociceptin receptor; experiment: Agonist activity at human NOP receptor transfected in CHO cells assessed as stimulation of [35S]GTP-gamma-S at 0.1 uM; type: functional, cell-based

Sequence of Mu-type opioid receptor (P35372 whole entry): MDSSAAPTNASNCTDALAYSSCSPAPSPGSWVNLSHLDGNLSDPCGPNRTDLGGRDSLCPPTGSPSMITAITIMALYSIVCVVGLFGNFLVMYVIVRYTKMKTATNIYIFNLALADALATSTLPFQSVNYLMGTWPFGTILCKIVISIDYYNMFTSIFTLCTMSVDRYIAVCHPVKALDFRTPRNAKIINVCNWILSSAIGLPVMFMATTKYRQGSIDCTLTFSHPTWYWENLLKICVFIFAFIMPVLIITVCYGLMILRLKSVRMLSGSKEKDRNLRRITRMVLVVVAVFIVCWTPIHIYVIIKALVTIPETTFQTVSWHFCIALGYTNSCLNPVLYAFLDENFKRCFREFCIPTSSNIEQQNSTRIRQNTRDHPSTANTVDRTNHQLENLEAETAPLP
Sequence of Kappa-type opioid receptor (P41145 whole entry): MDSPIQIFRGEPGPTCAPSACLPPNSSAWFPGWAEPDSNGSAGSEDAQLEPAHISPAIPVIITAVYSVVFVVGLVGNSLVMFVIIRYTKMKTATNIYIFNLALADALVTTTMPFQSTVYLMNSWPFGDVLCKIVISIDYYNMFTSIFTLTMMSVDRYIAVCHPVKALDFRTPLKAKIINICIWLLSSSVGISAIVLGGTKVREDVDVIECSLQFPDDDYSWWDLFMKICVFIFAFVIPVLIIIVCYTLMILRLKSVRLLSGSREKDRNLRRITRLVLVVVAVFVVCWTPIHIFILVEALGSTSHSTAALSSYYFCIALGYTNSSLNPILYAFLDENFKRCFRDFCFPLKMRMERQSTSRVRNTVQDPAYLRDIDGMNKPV
Sequence of Delta-type opioid receptor (P41143 whole entry): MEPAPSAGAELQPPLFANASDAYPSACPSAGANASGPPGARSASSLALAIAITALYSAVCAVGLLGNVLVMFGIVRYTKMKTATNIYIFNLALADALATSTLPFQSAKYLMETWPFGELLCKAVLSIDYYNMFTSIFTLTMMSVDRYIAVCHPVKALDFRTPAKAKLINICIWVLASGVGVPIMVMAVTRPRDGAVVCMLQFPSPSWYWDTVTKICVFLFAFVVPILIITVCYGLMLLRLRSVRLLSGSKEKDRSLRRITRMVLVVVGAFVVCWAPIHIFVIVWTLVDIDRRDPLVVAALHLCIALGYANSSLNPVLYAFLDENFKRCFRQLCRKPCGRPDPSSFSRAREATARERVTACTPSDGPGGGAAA
T1 sequence (P41146 whole entry): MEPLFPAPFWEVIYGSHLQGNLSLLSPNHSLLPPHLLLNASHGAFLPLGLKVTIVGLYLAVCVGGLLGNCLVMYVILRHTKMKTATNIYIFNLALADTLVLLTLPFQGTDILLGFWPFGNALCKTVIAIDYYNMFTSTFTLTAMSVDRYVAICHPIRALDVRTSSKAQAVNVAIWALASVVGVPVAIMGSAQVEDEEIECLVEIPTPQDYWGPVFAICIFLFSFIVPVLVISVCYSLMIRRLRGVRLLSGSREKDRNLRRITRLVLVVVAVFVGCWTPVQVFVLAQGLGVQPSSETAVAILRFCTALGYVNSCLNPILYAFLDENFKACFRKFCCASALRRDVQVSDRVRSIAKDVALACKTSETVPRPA

Row | SMILES | Ki [1] | Ki [2] | Ki [3] | Ki [4] | Activity [6] | inhibition [7] | inhibition [8] | Activity [9] | Activity [5]
1 | CCCS(=O)(=O)NCc1ccccc1C1(O)CCN(C(c2ccccc2Cl)c2ccccc2Cl)CC1 | 271 nM | 122 nM | 15 nM | 777 nM |  |  |  |  | 
2 | OC1(c2ccccc2CN2CCOCC2)CCN(C(c2ccccc2Cl)c2ccccc2Cl)CC1 | 120 nM | 323 nM | 5.9 nM | 2910 nM |  |  |  |  | 
3 | NCc1ccccc1C1(O)CCN(C(c2ccccc2F)c2ccccc2F)CC1 | 37 nM | 116 nM | 0.5 nM | 3700 nM |  |  |  |  | 
4 | CCNC(=O)NCc1ccccc1C1(O)CCN(C(c2ccccc2Cl)c2ccccc2Cl)CC1 | 304 nM | 330 nM | 12 nM | 2440 nM |  |  |  |  | 
5 | OC1(Cc2ccccc2)CCN(C(c2ccccc2)c2ccccc2)CC1 | 10400 nM | 1440 nM | 2180 nM | 15000 nM |  |  |  |  | 
6 | CC1(C)CCC(N2CCC(O)(c3ccccc3CN)CC2)c2ccccc21 (configuration not stated) | 181 nM | 1350 nM | 5.5 nM | 23400 nM |  | 43% |  |  | 
7 | NCc1ccccc1C1(O)CCN(Cc2ccccc2)CC1 |  |  | 455 nM |  |  |  |  |  | 
8 | NCc1ccccc1C1(O)CCN(CC2CCCCCC2)CC1 | 452 nM | 664 nM | 4.6 nM | 99500 nM |  |  | 67% |  | 
9 | CN1CCN(Cc2ccccc2C2(O)CCN(C(c3ccccc3Cl)c3ccccc3Cl)CC2)CC1 | 190 nM | 139 nM | 2.2 nM | 1700 nM |  |  |  |  | 
10 | CCS(=O)(=O)N1CCN(Cc2ccccc2C2(O)CCN(C(c3ccccc3Cl)c3ccccc3Cl)CC2)CC1 | 351 nM | 146 nM | 0.9 nM | 1590 nM |  |  |  |  | 
11 | Cc1ccc(C2(O)CCN(C(c3ccccc3)c3ccccc3)CC2)cc1 | 940 nM | 4050 nM | 55 nM | 12100 nM |  |  |  |  | 
12 | CC(C)S(=O)(=O)NCc1ccccc1C1(O)CCN(C(c2ccccc2Cl)c2ccccc2Cl)CC1 | 163 nM | 174 nM | 4.1 nM | 518 nM |  |  |  |  | 
13 | OC1(C2CC2)CCN(C(c2ccccc2)c2ccccc2)CC1 | 18400 nM | 26400 nM | 376 nM | 131000 nM |  |  |  |  | 
14 | OC1(C2CCCCC2)CCN(C(c2ccccc2)c2ccccc2)CC1 | 407 nM | 387 nM | 17 nM | 8110 nM |  |  |  |  | 121%

More lines, main results first:

Row | Ki [1] | Ki [2] | Ki [3] | Ki [4] | Activity [6] | inhibition [7] | inhibition [8] | Activity [9] | SMILES | Activity [5]
15 | 502 nM | 1060 nM | 110 nM | 8900 nM |  |  |  |  | Cc1ccc(C(c2ccc(C)cc2)N2CCC(O)(c3ccccc3CN)CC2)cc1 | 
16 | 705 nM | 1990 nM | 23 nM | 5610 nM |  |  |  |  | OC1(c2cccc(F)c2)CCN(C(c2ccccc2)c2ccccc2)CC1 | 61%
17 |  |  | 9160 nM |  |  |  |  |  | CCCCc1ccc(C2(O)CCN(C(c3ccccc3)c3ccccc3)CC2)cc1 | 
18 | 72 nM | 279 nM | 1.1 nM | 3290 nM | 115% |  |  |  | NCc1ccccc1C1(O)CCN(C(c2ccccc2)c2ccccc2Br)CC1 (configuration not stated) | 
19 | 616 nM | 771 nM | 9.6 nM | 9380 nM |  |  |  |  | NCc1ccccc1C1(O)CCN(C(c2cccc(F)c2)c2cccc(F)c2)CC1 | 
20 | 771 nM | 759 nM | 14 nM | 3320 nM |  |  |  |  | OC1(c2ccc(F)cc2)CCN(C(c2ccccc2)c2ccccc2)CC1 | 
21 | 756 nM | 2570 nM | 15 nM | 8880 nM |  |  |  |  | Cc1ccsc1C1(O)CCN(C(c2ccccc2)c2ccccc2)CC1 | 
22 | 8380 nM | 61000 nM | 1450 nM | 28400 nM |  |  |  |  | N#Cc1ccc(C2(O)CCN(C(c3ccccc3)c3ccccc3)CC2)cc1 | 
23 | 3430 nM | 11400 nM | 1280 nM | 24900 nM |  |  |  |  | CCc1ccc(C2(O)CCN(C(c3ccccc3)c3ccccc3)CC2)cc1 | 
24 | 3080 nM | 2090 nM | 674 nM | 3990 nM |  |  |  |  | NCc1ccccc1C1(O)CCN(C(c2ccc(Cl)cc2)c2ccc(Cl)cc2)CC1 | 
25 | 273 nM | 1150 nM | 27 nM | 7800 nM |  |  |  |  | Cc1cccc(C2(O)CCN(C(c3ccccc3)c3ccccc3)CC2)c1 | 
26 | 167 nM | 255 nM | 0.7 nM | 3820 nM |  |  |  |  | CNCc1ccccc1C1(O)CCN(C(c2ccccc2Cl)c2ccccc2Cl)CC1 | 
27 | 589 nM | 1740 nM | 34 nM | 5610 nM |  |  |  |  | OC1(c2ccccc2F)CCN(C(c2ccccc2)c2ccccc2)CC1 | 
28 | 72 nM | 425 nM | 0.5 nM | 3700 nM |  |  |  | 116% | NCc1ccccc1C1(O)CCN(C(c2ccccc2)c2ccccc2Cl)CC1 (configuration not stated) | 
